Data as given in patent US9204640B2, “2-acyloxy-pyrrolin-4-ones” (BAYER INTELLECTUAL PROPERTY GMBH, priority 2011, dated 2015).

Assays:
Format in all cases: in vivo
[1] = system: Echinocloa crus-galli; assay: Herbicidal post-emergence action, ECHCG; settings: Echinochloa crus-galli, post-emergence, 20 g/ha
Procedure: (§1) 2. Herbicidal Post-Emergence Action
(§2) • Seeds of monocotyledonous and dicotyledonous weed and crop plants are placed in sandy loam in wood-fiber pots, covered with soil and cultivated in a greenhouse under good growth conditions. 2 to 3 weeks after sowing, the test plants are treated at the one-leaf stage. The test compounds, formulated as wettable powders (WP), are then, with a water application rate of 600 l/ha (converted), with 0.2% of wetting agent added, sprayed at various dosages onto the green parts of the plants. After the test plants have been kept in the greenhouse under optimum growth conditions for about 3 weeks, the activity of the preparations is rated visually in comparison to untreated controls (herbicidal activity in percent: 100% activity=the plants have died, 0% activity=like control plants). • In addition to the compounds mentioned above, the following compounds show an activity of 90-100% against Alopecurus myosuroides, Avena fatua, Digitaria sanguinalis, Echinocloa crus-galli, Lolium multiflorum, Setaria viridis and Sorghum halapense when applied by the post-emergence method at 320 g/ha: I-a-2, I-a-4, I-a-5, I-a-7, I-a-9, I-a-10, I-a-11, I-a-12, I-a-13, I-a-15. • In addition to the compounds mentioned above, the following compounds show an activity of 90-100% against Alopecurus myosuroides, Avena fatua, Echinocloa crus-galli, Lolium multiflorum and Setaria viridis when applied by the post-emergence method at 80 g/ha: I-a-1, I-b-2.
(§3) • Seeds of monocotyledonous and dicotyledonous weed plants and crop plants are placed in wood-fiber pots in sandy loam and covered with soil. The test compounds, formulated in the form of wettable powders (WP) or emulsion concentrates (EC), are then, as an aqueous suspension with a water application rate of 600-800 l/ha (converted), with 0.1-0.2% of wetting agent added, applied at various dosages to the surface of the covering soil. • After the treatment, the pots are placed in a greenhouse and kept under good growth conditions for the test plants. […] Herbicidal Post-Emergence Action (Post) • Seeds of monocotyledonous and dicotyledonous weed and crop plants are placed in sandy loam in wood-fiber pots, covered with soil and cultivated in a greenhouse under good growth conditions. 2-3 weeks (stages 10-13 according to the BBCH scale) after sowing, the test plants are treated at a height of 5-10 cm. The test compounds, formulated as wettable powders (WP) or emulsion concentrates (EC), are then, with a water application rate of 600-800 l/ha (converted), with 0.1-0.2% of wetting agent added, sprayed at various dosages onto the green parts of the plants.
(§4) AVEFA: Avena fatua LOLMU: Lolium multiflorum SETVI: Setaria viridis CHEAL: Chenopodium album VIOTR: Viola tricolor VERPE: Veronica persica ORYSA: Oryza sativa TRZAS: Triticum aestivum ZEAMX: Zea mays ALOMY: Alopecurus myosuroides DIGSA: Digitaria sanguinalis ECHCG: Echinocloa crus-galli SORHA: Sorghum halepense AVESA: Avena sativa AMARE: Amaranthus retroflexus SINAL: Sinapis alba STEME: Stellaria media

[2] = system: Digitaria sanguinalis; assay: Herbicidal post-emergence action, DIGSA; settings: Digitaria sanguinalis, post-emergence, 20 g/ha
Procedure: as §1, §2, §3, §4

[3] = system: Alopecurus myosuroides; assay: Herbicidal post-emergence action, ALOMY; settings: Alopecurus myosuroides, post-emergence, 20 g/ha
Procedure: as §1, §2, §3, §4

[4] = system: Setaria viridis; assay: Herbicidal pre-emergence action, SETVI; settings: Setaria viridis, pre-emergence, 20 g/ha
From the text: 1. Herbicidal Pre-Emergence Action
• Seeds of monocotyledonous and dicotyledonous weed plants and crop plants are placed in wood-fiber pots in sandy loam and covered with soil. The test compounds, formulated in the form of wettable powders (WP), are then, as an aqueous suspension with a water application rate of 600 l/ha (converted), with 0.2% of wetting agent added, applied at various dosages to the surface of the covering soil. • After the treatment, the pots are placed in a greenhouse and kept under good growth conditions for the test plants. The visual assessment of the damage to the test plants is carried out after a trial period of about 3 weeks by comparison with untreated controls (herbicidal activity in percent: 100% activity=the plants have died, 0% activity=like control plants). • In addition to the compounds mentioned above, the following compounds show an activity of 90-100% against Alopecurus myosuroides, Digitaria sanguinalis, Echinocloa crus-galli, Lolium multiflorum, Setaria viridis and Sorghum halapense when applied by the pre-emergence method at 320 g/ha of a.i.: I-a-2, I-a-10, I-a-11, I-a-12.
1. Herbicidal Pre-Emergence Action (Pre)
as §3, §4

[5] = system: Myzus persicae; assay: Myzus persicae test; hydroponic treatment (MYZUPE Sys); settings: Myzus persicae, 144 h, 6dat
Procedure: Myzus Persicae Test; Hydroponic Treatment (MYZUPE Sys)
To produce a suitable preparation of active compound, 1 part by weight of active compound is mixed with the stated amounts of solvent and emulsifier, and the concentrate is diluted with water to the desired concentration.
The active compound preparation is mixed with water. The stated concentration refers to the amount of active compound per volume unit of water (mg/l=ppm). The treated water is filled into vessels containing a pea plant (Pisum sativum), and the plant is the infested with the green peach aphid (Myzus persicae).
After the desired period of time, the kill in % is determined 100% means that all of the aphids have been killed; 0% means that none of the aphids have been killed.

[6] = system: Myzus persicae; assay: Myzus persicae test (MYZUPE Tau), leaf dipping; settings: Myzus persicae, foliar, 144 h, 6dat
Procedure: Myzus Persicae Test (MYZUPE Tau) To produce a suitable preparation of active compound, 1 part by weight of active compound is mixed with the stated amount of solvent and emulsifier, and the concentrate is diluted with emulsifier-containing water to the desired concentration. Cabbage leaves (Brassica oleracea) which are heavily infested by the green peach aphid (Myzus persicae) are treated by dipping into the active compound preparation of the desired concentration. After the desired period of time, the kill in % is determined. 100% means that all of the aphids have been killed; 0% means that none of the aphids have been killed.

[7] = system: Myzus persicae; assay: Myzus test (MYZUPE spray treatment); settings: application rate 500 g/ha, after 5 days, Chinese cabbage leaf discs
Procedure: Myzus Test (MYZUPE Spray Treatment) [table] To produce a suitable preparation of active compound, 1 part by weight of active compound is mixed with the stated amount of solvent and emulsifier, and the concentrate is diluted with emulsifier-containing water to the desired concentration. Discs of Chinese cabbage (Brassica pekinensis) infected by all stages of the green peach aphid (Myzus persicae) are sprayed with an active compound preparation of the desired concentration. After 5 days, the effect in % is determined 100% means that all of the aphids have been killed; 0% means that none of the aphids have been killed. Myzus Test (MYZUPE Spray Treatment) To produce a suitable preparation of active compound, 1 part by weight of active compound is mixed with the stated amount of solvent and emulsifier, and the concentrate is diluted with emulsifier-containing water to the desired concentration. Discs of Chinese cabbage (Brassica pekinensis) infected by all stages of the green peach aphid (Myzus persicae) are sprayed with an active compound preparation of the desired concentration. After the desired period of time, the activity in % is determined. 100% means that all of the aphids have been killed; 0% means that none of the aphids have been killed.

[8] = system: Phaedon cochleariae; assay: Phaedon test (PHAECO spray treatment); settings: application rate 500 g/ha, after 7 days, Chinese cabbage leaf discs
Procedure: Phaedon Test ([…] Spray Treatment) [table] To produce a suitable preparation of active compound, 1 part by weight of active compound is mixed with the stated amount of solvent and emulsifier, and the concentrate is diluted with emulsifier-containing water to the desired concentration. Discs of Chinese cabbage (Brassica pekinensis) are sprayed with an active compound preparation of the desired concentration and, after drying, populated with larvae of the mustard beetle (Phaedon cochleariae). After 7 days, the effect in % is determined 100% means that all beetle larvae have been killed; 0% means that none of the beetle larvae have been killed. Phaedon Test ([…] Spray Treatment) To produce a suitable preparation of active compound, 1 part by weight of active compound is mixed with the stated amount of solvent and emulsifier, and the concentrate is diluted with emulsifier-containing water to the desired concentration. Discs of Chinese cabbage (Brassica pekinensis) are sprayed with an active compound preparation of the desired concentration and, after drying, populated with larvae of the mustard beetle (Phaedon cochleariae). After the desired period of time, the activity in % is determined. 100% means that all beetle larvae have been killed; 0% means that none of the beetle larvae have been killed.

[9] = system: Spodoptera frugiperda; assay: Spodoptera frugiperda test (SPODFR spray treatment); settings: application rate 500 g/ha, after 7 days, corn leaf discs
Procedure: Spodoptera Frugiperda Test (SPODFR Spray Treatment) [table] To produce a suitable preparation of active compound, 1 part by weight of active compound is mixed with the stated amount of solvent and emulsifier, and the concentrate is diluted with emulsifier-containing water to the desired concentration. Discs of corn leaves (Zea mays) are sprayed with an active compound preparation of the desired concentration and, after drying, populated with caterpillars of the armyworm (Spodoptera frugiperda). After 7 days, the effect in % is determined. 100% means that all caterpillars have been killed; 0% means that none of the caterpillars have been killed. Spodoptera Frugiperda Test (SPODFR Spray Treatment) To produce a suitable preparation of active compound, 1 part by weight of active compound is mixed with the stated amount of solvent and emulsifier, and the concentrate is diluted with emulsifier-containing water to the desired concentration. Discs of corn leaves (Zea mays) are sprayed with an active compound preparation of the desired concentration and, after drying, populated with caterpillars of the armyworm (Spodoptera frugiperda). After the desired period of time, the activity in % is determined. 100% means that all caterpillars have been killed; 0% means that none of the caterpillars have been killed.

[10] = system: Meloidogyne incognita; assay: Meloidogyne incognita test (MELGIN); settings: 20 ppm, after 14 days, lettuce roots
Procedure: Meloidogyne Incognita Test (MELGIN) [table] To prepare a suitable active compound preparation, 1 part by weight of active compound is mixed with the stated amounts of solvent and the concentrate is diluted with water to the desired concentration. Containers are filled with sand, solution of active compound, Meloidogyne incognita egg/larvae suspension and lettuce seeds. The lettuce seeds germinate and the plants develop. On the roots, galls are formed. After 14 days, the nematicidal effect in % is determined by the formation of galls. 100% means that no galls have been found; 0% means that the number of galls on the treated plants corresponds to the untreated control.

[11] = system: Nilaparvata lugens; assay: Nilaparvata lugens test (NILALU hydroponic treatment); settings: 20 ppm, after 7 days
Procedure: Nilaparvata Lugens Test ([…] Hydroponic Treatment) To produce a suitable preparation of active compound, 1 part by weight of active compound is mixed with the stated amount of solvent and emulsifier, and the concentrate is diluted with emulsifier-containing water to the desired concentration. The active compound preparation is pipetted into water. The stated concentration refers to the amount of active compound per volume unit of water (mg/l=ppm), the sample is then infected with the brown planthopper (Nilaparvata lugens). After 7 days, the effect in % is determined 100% means that all of the planthoppers have been killed; 0% means that none of the planthoppers have been killed.

Structure (SMILES): CCOC(=O)OC1=C(c2c(C)cc(I)cc2CC)C(=O)NC12CCC(OC)CC2 (stereo not shown) [I-1-c-1 known from WO 06/029799]
- inhibition at 20 g/ha [1]: 30%
- inhibition at 20 g/ha [2]: 30%
- inhibition at 20 g/ha [3]: 30%
- inhibition at 20 g/ha [4]: 20%
- inhibition at 20 ppm [5]: 60%
- inhibition at 20 ppm [6]: 50%

Structure (SMILES): COc1cc(C)cc(C)c1C1=C(OC(=O)C(C)(C)C)NC2(CCC(OC)CC2)C1=O (stereo not shown) [I-a-2]
- effect in % (aphids killed) [7]: 100%
- effect in % (beetle larvae killed) [8]: 100%
- effect in % (caterpillars killed) [9]: 100%
- nematicidal effect in % (formation of galls) [10]: 100%

Structure (SMILES): CCc1cc(C)cc(Br)c1C1=C(OC(=O)C(C)(C)C)NC(C)(C)C1=O [I-a-13]
- effect in % (aphids killed) [7]: 80%
- effect in % (planthoppers killed) [11]: 100%
- effect in % (beetle larvae killed) [8]: 83%
